Literature values as cited in patent US20240398820A1, “METHODS FOR TREATMENT OF PULMONARY HYPERTENSION” (Respira Therapeutics, Inc., priority 2023, published 2024).

Experiments:
[1] = inhaled, following pulmonary administration
[2] = human patients with PAH, 5 mg orally twice per day
[3] = in vivo

tmax [1]: ≤ 2 min
clearance [3]: rapid clearance
Compound: CCCc1nc(C)c2c(=O)nc(-c3cc(S(=O)(=O)N4CCN(CC)CC4)ccc3OCC)[nH]n12 [Vardenafil, 1-[[3-(1,4-dihydro-5-methyl-4-oxo-7-propylimidazo[5,1-f][1,2,4]triazin-2-yl)-4-ethoxyphenyl]sulfonyl]-4-ethyl-piperazine]
dissociation rate: slow dissociation rate
safety and efficacy in PAH [2]: safe and effective
